The nature of this series: plasma trough level of itraconazole required for clinical benefit, and side effects of high doses, in humans with cancer. It is filed as in vivo. On the procedure: In particular, the minimum plasma trough level after 4 weeks of therapy required to have a clinically significant effect was at least 1000 ng/ml. […] These side effects associated with these high doses of itraconazole can be effectively managed by giving a selective mineralocorticoid antagonist, such as eplerenone. Accordingly, in some embodiments, the method further comprises administering eplerenone or other mineralocorticoid inhibitor.

On to `CCC(C)n1ncn(-c2ccc(N3CCN(c4ccc(OCC5COC(Cn6cncn6)(c6ccc(Cl)cc6Cl)O5)cc4)CC3)cc2)c1=O` (centres unmarked) [itraconazole], for which, where the note is “high doses giving plasma trough of at least 1000 ng/ml”, the “side-effects peculiar to high doses” value was “hypertension, peripheral edema, and hypokalemia”. Besides, the concentration at 4 weeks (human, plasma, after 4 weeks of therapy, humans with cancer, read-out: minimum plasma trough level required to have a clinically significant effect) was no less than 1000 ng/mL.

Source of the values: patent US20190365743A1, “HEDGEHOG PATHWAY INHIBITION FOR TREATMENT OF HIGH-RISK BASAL CELL CARCINOMA OR HIGH-RISK BASAL CELL CARCINOMA NEVUS SYNDROME” (HEDGEPATH PHARMACEUTICALS, INC., priority 2018, published 2019).
